Results reported in US9615577B2, “Herbicidally active cyclic dione compounds, or derivatives therefor, substituted by a phenyl which has an alkynyl-containing substituent” (Syngenta Limited, priority 2012, dated 2017).

Columns and labels:
Format in all cases: in vivo
[1] = system: Triticum aestivum (TRZAW, winter wheat); assay: Test 1B glasshouse assay for herbicidal activity, post-emergence; details: 360 h; for plant injury at 60 g/ha: 60 g/ha application rate; for plant injury at 30 g/ha: 30 g/ha application rate
Procedure: (§1) Seeds of a variety of monocotyledonous and dicotyledonous test plants are sown in standard soil in pots. The plants are cultivated for one day (for pre-emergence) or for about 12 days (range=10-13 days) (for post-emergence) under controlled conditions in a glasshouse (warm climate species at 24/18° C., cool climate species at 20/16° C., both at day/night; 16 hours light; 65% humidity).
(§2) An “instant formulation”, known as the “IF50”, containing 50 g/liter (i.e. 5% w/v) of the “technical” (i.e. unformulated) active ingredient is prepared by dissolving the active ingredient in a mixture of organic solvents and emulsifier, details of which are provided in the Table below. This IF50 is then mixed with a small, variable amount of acetone to aid dissolution, before addition of a 0.2% v/v aqueous solution of the adjuvant X-77 (which is a mixture of alkyl aryl polyoxyethylene glycols and free fatty acids in isopropanol, CAS Registry number 11097-66-8), as the aqueous diluent, to form an aqueous spray solution which contains a predetermined concentration of the active ingredient (which varies depending on the application rate of the active ingredient to the plants) and 0.2% v/v of the adjuvant X-77. This aqueous spray solution is then sprayed onto the plants, after one day's cultivation (for pre-emergence) or after about 12 days' cultivation (for post-emergence).
(§3) The test plants are then grown on, in a glasshouse (greenhouse) under controlled conditions (at either 24/18° C. or 20/16° C. (day/night) as mentioned above; 16 hours light; 65% humidity) and are watered twice daily. Either 15 days after application of the herbicide (15 DAA) (for post-emergence), or 20 days after application of the herbicide (20 DAA) (for pre-emergence), the test plants are evaluated visually, and an assessed percentage phytotoxicity score is given for each herbicidal application on each plant species (where 100%=total damage to plant; 0%=no damage to plant).
(§4) Cool climate crop plants: Triticum aestivum (TRZAW, winter wheat), Brassica napus (BRSNN, rape, also called oilseed rape or rapeseed), Beta vulgaris (BEAVA, sugar beet).

[2] = system: Beta vulgaris (BEAVA, sugar beet); assay: as above; details: 360 h; for plant injury at 60 g/ha: 60 g/ha application rate; for plant injury at 30 g/ha: 30 g/ha application rate
Procedure: as §1, §2, §3, §4

[3] = system: Brassica napus (BRSNN, rape); assay: as above; details: 360 h; for plant injury at 60 g/ha: 60 g/ha application rate; for plant injury at 30 g/ha: 30 g/ha application rate
Procedure: as §1, §2, §3, §4

[4] = system: Echinochloa crus-galli (ECHCG); assay: Test 1A glasshouse assay for herbicidal activity, pre-emergence; details: 312 h, 250 g/ha, evaluated after 13 days, read-out: percentage phytotoxicity ECHCG
In short: (§5)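 Damage is rated by eye as percent phytotoxicity on a 0–100 scale, 13 days after treatment. Compound is sprayed in acetone/water (50:50) with 0.5% Tween 20 onto pots one day (pre-emergence) or eight days (post-emergence) after sowing, with plants kept at 24/16 °C and 14 h light.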

[5] = system: Amaranthus retroflexus (AMARE); assay: as above; details: 312 h, 250 g/ha, evaluated after 13 days, read-out: percentage phytotoxicity AMARE
In short: as §5

[6] = system: Alopecurus myosuroides (ALOMY); assay: as above; details: 312 h, 250 g/ha, evaluated after 13 days, read-out: percentage phytotoxicity ALOMY
In short: as §5

Setaria faberi (SETFA) [7] = assay: as above; details: 312 h, 250 g/ha, evaluated after 13 days, read-out: percentage phytotoxicity SETFA
In short: as §5

[8] = system: Brachiaria plantaginea (BRAPL); assay: Test 1B glasshouse assay for herbicidal activity, post-emergence; details: Urochloa plantaginea; for pest or weed control at 60 g/ha: 60 g/ha application rate; for pest or weed control at 30 g/ha: 30 g/ha application rate
In short: (§6)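 Seeds sown in standard soil; sprayed after 1 day (pre-emergence) or ~12 days (post-emergence) with active ingredient from a 50 g/liter IF50 formulation diluted in 0.2% v/v X-77 aqueous adjuvant. Glasshouse at 24/18° C. day/night, 16 h light, 65% humidity; visual % phytotoxicity scored 20 DAA (pre) or 15 DAA (post).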

[9] = system: SORVU (Sorghum bicolor (L.) Moench ssp. Bicolor, or Sorghum vulgare Pers.); assay: Test 1B glasshouse assay for herbicidal activity, pre-emergence; details: 480 h, 20 DAA, read-out: percentage phytotoxicity SORVU
In short: as §6

Setaria faberi (SETFA) [10] = assay: as above; details: 480 h, 20 DAA, read-out: percentage phytotoxicity SETFA
In short: as §6

Avena fatua (AVEFA) = assay: as above; details: 480 h, 20 DAA, read-out: percentage phytotoxicity AVEFA
Procedure: as §1, §2, §3
(§7) Cool climate (“cool season”) grassy monocotyledonous weeds: Alopecurus myosuroides (ALOMY), Avena fatua (AVEFA), Lolium perenne (LOLPE).

Lolium perenne (LOLPE) = assay: as above; details: 480 h, 20 DAA, read-out: percentage phytotoxicity LOLPE
Procedure: as §1, §2, §3, §7

[11] = system: Alopecurus myosuroides (ALOMY); assay: as above; details: 480 h, 20 DAA, read-out: percentage phytotoxicity ALOMY
Procedure: as §1, §2, §3, §7

[12] = system: Echinochloa crus-galli (ECHCG); assay: Test 1B glasshouse assay for herbicidal activity, post-emergence; details: Echinochloa crus-galli; for pest or weed control at 60 g/ha: 60 g/ha application rate; for pest or weed control at 30 g/ha: 30 g/ha application rate
Procedure: as §1, §2, §3
Warm climate (“warm season”) grassy monocotyledonous weeds: Setaria faberi (SETFA), SORVU (Sorghum bicolor (L.) Moench ssp. Bicolor, or Sorghum vulgare Pers.), Digitaria sanguinalis (DIGSA), Echinochloa crus-galli (ECHCG), and Brachiaria plantaginea (BRAPL).
Note: The herbicidal activity data (e.g. post-emergence) shown above in Biological Example 1B for Comparator compounds X-9 and X-10 is thought likely to have been measured some years ago, probably using a variant of the above-described test method. Also, for the post-emergence activity of X-9 and X-10 it is not currently known exactly how many days after application of the herbicide the phytotoxicity on the plants was measured.

[13] = system: Abutilon theophasti Medik. (ABUTH); assay: Test 1A glasshouse assay for herbicidal activity, post-emergence; details: 312 h, evaluated after 13 days, read-out: percentage phytotoxicity ABUTH
In short: as §5

Row | Structure (SMILES) | plant injury at 60 g/ha [1] [%] | plant injury at 60 g/ha [2] [%] | plant injury at 60 g/ha [3] [%] | pest or weed control at 250 g/ha [4] [%] | pest or weed control at 250 g/ha [5] [%] | pest or weed control at 250 g/ha [6] [%] | pest or weed control at 250 g/ha (Setaria faberi (SETFA) [7]) [%] | pest or weed control at 60 g/ha [8] [%] | pest or weed control at 60 g/ha [12] [%] | plant injury at 30 g/ha [2] [%] | plant injury at 30 g/ha [3] [%] | pest or weed control at 30 g/ha [12] [%] | plant injury at 30 g/ha [1] [%] | pest or weed control at 30 g/ha [13] [%] | pest or weed control at 250 g/ha [13] [%] | other results
1 | CC#Cc1ccc(C2C(=O)C3CCC(C3)C2=O)c(C)c1 (single isomer, unassigned) [Compound A-2] | 80 | 10 | 70 | 100 | 0 | 90 | 70 | 100 | 100 | – | – | – | – | – | – | pest or weed control at 500 g/ha [9]: 80%; pest or weed control at 500 g/ha (Setaria faberi (SETFA) [10]): 90%; pest or weed control at 500 g/ha (Avena fatua (AVEFA)): 80%; pest or weed control at 500 g/ha (Lolium perenne (LOLPE)): 100%; pest or weed control at 500 g/ha [11]: 100%
2 | CC#Cc1ccc(C2C(=O)C(C)(C)OC(C)(C)C2=O)c(C)c1 [Compound A-1] | 80 | 30 | 70 | 80 | 0 | 90 | 90 | 90 | 90 | – | – | – | – | – | – | pest or weed control at 500 g/ha [9]: 60%; pest or weed control at 500 g/ha (Setaria faberi (SETFA) [10]): 50%; pest or weed control at 500 g/ha (Avena fatua (AVEFA)): 10%; pest or weed control at 500 g/ha (Lolium perenne (LOLPE)): 100%; pest or weed control at 500 g/ha [11]: 70%
3 | Cc1cc(C#CCl)cc(C)c1C1C(=O)C2CCC(C2)C1=O (stereo not drawn) [Compound A-6] | 40 | 50 | 60 | 100 | 30 | 100 | 100 | 100 | 90 | 40 | 40 | 90 | – | – | – | pest or weed control at 30 g/ha [8]: 90%; pest or weed control at 125 g/ha [9]: 80%; pest or weed control at 125 g/ha (Setaria faberi (SETFA) [10]): 80%; pest or weed control at 125 g/ha (Avena fatua (AVEFA)): 40%; pest or weed control at 125 g/ha (Lolium perenne (LOLPE)): 80%; pest or weed control at 125 g/ha [11]: 60%
4 | Cc1cc(C#CCl)cc(C)c1C1C(=O)CC(CC2CCOCC2)CC1=O (stereo not drawn) [Compound A-8] | – | – | – | 100 | 90 | 90 | 90 | – | – | 30 | 70 | 100 | 50 | – | – | pest or weed control at 30 g/ha [8]: 90%
5 | CC#Cc1cc(C)c(C2C(=O)CC(CC3CCOCC3)CC2=O)c(C)c1 (stereo not drawn) [Compound A-9] | – | – | – | 100 | 100 | 100 | 100 | – | – | 0 | 50 | 100 | 60 | – | – | pest or weed control at 125 g/ha [9]: 90%; pest or weed control at 125 g/ha (Setaria faberi (SETFA) [10]): 100%; pest or weed control at 125 g/ha (Avena fatua (AVEFA)): 80%; pest or weed control at 125 g/ha (Lolium perenne (LOLPE)): 100%; pest or weed control at 125 g/ha [11]: 80%
6 | CC#Cc1cc(Cl)c(C2C(=O)C3CCC(C3)C2=O)c(OCC)c1 (stereo not drawn) [Compound A-16] | – | – | – | 100 | 80 | 100 | 100 | – | – | 0 | 10 | 80 | 10 | 60 | 60 | plant injury at 125 g/ha ([1]; 125 g/ha application rate): 60%; plant injury at 125 g/ha ([2]; 125 g/ha application rate): 0%; plant injury at 125 g/ha ([3]; 125 g/ha application rate): 50%; pest or weed control at 250 g/ha [9]: 80%; pest or weed control at 250 g/ha (Setaria faberi (SETFA) [10]): 90%; pest or weed control at 250 g/ha (Avena fatua (AVEFA)): 40%; pest or weed control at 250 g/ha (Lolium perenne (LOLPE)): 70%; pest or weed control at 250 g/ha [11]: 50%; pest or weed control at 125 g/ha ([12]; 125 g/ha application rate): 100%
7 | CC#Cc1cc(Cl)c(C2C(=O)C3CCC(C)(C2=O)C3(C)C)c(OC)c1 (stereo not drawn) [Compound A-17] | – | – | – | 100 | 60 | 90 | 90 | – | – | – | – | – | – | – | 10 | plant injury at 250 g/ha ([1]; 250 g/ha application rate): 10%; plant injury at 250 g/ha ([2]; 250 g/ha application rate): 10%; plant injury at 250 g/ha ([3]; 250 g/ha application rate): 10%; pest or weed control at 250 g/ha [9]: 50%; pest or weed control at 250 g/ha (Setaria faberi (SETFA) [10]): 50%; pest or weed control at 250 g/ha (Avena fatua (AVEFA)): 60%; pest or weed control at 250 g/ha (Lolium perenne (LOLPE)): 50%; pest or weed control at 250 g/ha [11]: 0%; pest or weed control at 250 g/ha ([12]; 250 g/ha application rate): 90%
8 | CC#Cc1cc(Cl)c(C2C(=O)CC3(CCOCC3)CC2=O)c(OC)c1 [Compound A-20, 9-(2-Chloro-6-methoxy-4-prop-1-ynyl-phenyl)-3-oxa-spiro[5.5]undecane-8,10-dione] | – | – | – | 100 | 90 | 100 | 100 | – | – | – | – | – | – | 80 | 80 | pest or weed control at 8 g/ha ([13]; 8 g/ha): 50%
9 | CC#Cc1cc(C)c(C2C(=O)CC(CCSC)CC2=O)c(C)c1 (stereo not drawn) [Compound A-21, 2-(2,6-Dimethyl-4-prop-1-ynyl-phenyl)-5-(2-methylsulfanyl-ethyl)cyclohexane-1,3-dione] | – | – | – | 100 | 90 | 100 | 100 | – | – | – | – | – | – | 10 | 60 | –
